Assay results as given in patent publication US11919965B2, “Methods of treating multiple myeloma with bispecific anti-BCMA x anti-CD3 antibodies” (Regeneron Pharmaceuticals, Inc., priority 2019, dated 2024).
Like-named read-outs stand apart in the source and are kept apart here.

Columns and labels:
[1] = test system: BCMA-expressing NCI-H929 multiple myeloma tumors; test: Xenogenic tumor model, NCI-H929 + human PBMC s.c. in NSG mice, treatment from implantation (Example 10); format: in vivo, mouse; settings: 4 mg/kg
Description: To determine the in vivo efficacy of BCMA×CD3 bispecific antibodies (Abs), a xenogenic tumor study was performed. Immunodeficient NOD.Cg-Prkdc^scidII2rgtm1Wjl/SzJ (NSG) mice were subcutaneously implanted with a mixture of 10×10^6 BCMA-expressing NCI-H929 multiple myeloma cells and 0.5×10^6 human peripheral blood mononuclear cells (PBMC) isolated from a normal donor. […] The mice were administered Abs twice per week for a total of three weeks, and tumor growth was assessed over 40 days. While BCMA^+ tumors grew similarly in the vehicle-, isotype control-, and CD3-binding control-treated mice, both BCMA×CD3 Abs that were tested prevented the growth of tumors in vivo.
(§1) Implantation and measurement of syngeneic tumors: NSG mice were subcutaneously implanted with a mixture of 10×10^6 BCMA-expressing NCI-H929 multiple myeloma cells and 0.5×10^6 PBMC derived from a normal donor. […] The mice were administered Abs twice per week for a total of three weeks. Tumor growth was measured with calipers twice per week for the duration of the experiment. Mice were sacrificed 40 days after tumor implantation.
(§2) Calculation of syngeneic tumor growth and inhibition: In order to determine tumor volume by external caliper, the greatest longitudinal diameter (length in mm) and the greatest transverse diameter (width in mm) were determined. Tumor volumes based on caliper measurements were calculated by the formula: Volume (mm^3)=(length× width^2)/2.

[2] = test system: primary multiple myeloma blast cells; test: FACS cytotoxicity assay, autologous T cell-mediated killing of primary multiple myeloma blast cells; format: cell-based, human; settings: for EC50: read-out: MM Lysis EC50
Description: In order to monitor the specific killing of multiple myeloma cells by flow cytometry, bone marrow mononuclear cells (BMMC) from multiple myeloma patients were plated on human stromal cells (HS5) and rested overnight at 37 C. Separately, matching patient peripheral blood mononuclear cells (PBMC) were thawed and cultured in supplemented RPMI media at 1×10^6 cells/mL overnight at 37° C. in order to enrich for lymphocytes by depleting adherent cells. The next day, BMMC were co-incubated with adherent cell-depleted naïve PBMC on stromal cells (HS5) and a serial 10× dilution of BCMA×CD3 bispecific or 1-arm CD3 isotype control (starting concentration 66.7 nM) at 37° C. Cells were removed from cell culture plates at day 3, 4 or 7 and analyzed by FACS. For the assessment of specificity of killing, multiple myeloma cells were gated as single, live, CD90 negative (to exclude stromal cells), CD2 negative, CD56 positive. CD45 was low on multiple myeloma cells in most samples except MM455. Percent of live target cells was reported for the calculation of adjusted survival as follows: Adjusted survival=(R1/R2)*100, where R1=% live target cells in the presence of antibody, and R2=% live target cells in the absence of test antibody.
T cells were gated as CD2 positive, CD56 negative and either CD4 or CD8 positive. T cell activation was reported as the percent of CD25+CD4 or CD8 T cells out of total CD4 or CD8 T cells.

[3] = test system: BCMA-expressing NCI-H929 multiple myeloma tumors; test: Xenogenic tumor model, NCI-H929 + human PBMC s.c. in NSG mice, dose response, treatment from implantation (Example 11); format: in vivo, mouse
Description: To determine the in vivo efficacy of anti-BCMA×anti-CD3 bispecific antibodies (Abs), a xenogenic tumor study was performed. Immunodeficient NOD.Cg-Prkdc^ScidII2rg^tm1Wjl/SzJ (NSG) mice were subcutaneously implanted with a mixture of 10×10^6 BCMA-expressing NCI-H929 human multiple myeloma tumor cells and 0.5×10^6 human peripheral blood mononuclear cells (PBMC) isolated from a normal, healthy donor. […] The mice were administered these Abs twice per week for a total of seven doses, and tumor growth was assessed over 60 days. While BCMA+NCI-H929 tumors grew similarly in the vehicle- and CD3-binding control-treated mice, both anti-BCMA×anti-CD3 Abs that were tested prevented the growth of tumors in a dose-dependent manner in vivo.
as §1, with “xenogenic” for “syngeneic”, “normal, healthy” for “normal”, “seven doses.” for “three weeks.”, “experiment.” for “experiment. Mice were sacrificed 40 days after tumor implantation.”
as §2, with “xenogenic” for “syngeneic”

REGN5458: anti-BCMA×anti-CD3 bispecific antibody: mAb21581 BCMA heavy chain, mAb7221G CD3 heavy chain and common light chain; SEQ ID NOs 126, 127, 129
Average Tumor Size (mm3) ± SEM on Day 4 [1]: 39.5 ± 9.1 mm3 | Average Tumor Size (mm3) ± SEM on Day 7 [1]: 0 ± 0 mm3 | Average Tumor Size (mm3) ± SEM on Day 11 [1]: 0 ± 0 mm3 | Average Tumor Size (mm3) ± SEM on Day 14 [1]: 0 ± 0 mm3 | Average Tumor Size (mm3) ± SEM on Day 18 [1]: 0 ± 0 mm3 | Average Tumor Size (mm3) ± SEM on Day 21 [1]: 0 ± 0 mm3 | Average Tumor Size (mm3) ± SEM on Day 28 [1]: 0 ± 0 mm3 | Average Tumor Size (mm3) ± SEM on Day 40 [1]: 0 ± 0 mm3 | EC50 ([2]; Sample MM2, E:T 1.4, 7 days): 0.747 nM | % MM lysis at 66 nM ([2]; Sample MM2, newly diagnosed, E:T 1.4, 7 days): 88% | % MM lysis at 66 nM ([2]; Sample MM369, newly diagnosed, E:T 0.3, 3 days): 96% | EC50 ([2]; Sample MM453, E:T 2.4, 3 days): 0.0989 nM | % MM lysis at 66 nM ([2]; Sample MM453, newly diagnosed, E:T 2.4, 3 days): 82% | EC50 ([2]; Sample MM455, E:T 0.4, 3 days): 3.67 nM | % MM lysis at 66 nM ([2]; Sample MM455, progression, treated, E:T 0.4, 3 days): 63% | Average Tumor Size (mm3) ± SEM on Day 7 ([3]; 0.04 mg/kg): 30.8 ± 5.5 mm3 | Average Tumor Size (mm3) ± SEM on Day 12 ([3]; 0.04 mg/kg): 71.5 ± 22.4 mm3 | Average Tumor Size (mm3) ± SEM on Day 15 ([3]; 0.04 mg/kg): 133.4 ± 50.9 mm3 | Average Tumor Size (mm3) ± SEM on Day 19 ([3]; 0.04 mg/kg): 413.7 ± 162.7 mm3 | Average Tumor Size (mm3) ± SEM on Day 22 ([3]; 0.04 mg/kg): 669.4 ± 248.5 mm3 | Average Tumor Size (mm3) ± SEM on Day 26 ([3]; 0.04 mg/kg): 1167.0 ± 431.7 mm3 | Average Tumor Size (mm3) ± SEM on Day 29 ([3]; 0.04 mg/kg): 1781.8 ± 620.7 mm3 | Average Tumor Size (mm3) ± SEM on Day 4 ([3]; 0.4 mg/kg): 31.9 ± 2.0 mm3 | Average Tumor Size (mm3) ± SEM on Day 7 ([3]; 0.4 mg/kg): 11.3 ± 3.0 mm3 | Average Tumor Size (mm3) ± SEM on Day 15 ([3]; 0.4 mg/kg): 0 ± 0 mm3 | Average Tumor Size (mm3) ± SEM on Day 19 ([3]; 0.4 mg/kg): 0 ± 0 mm3 | Average Tumor Size (mm3) ± SEM on Day 22 ([3]; 0.4 mg/kg): 0 ± 0 mm3 | Average Tumor Size (mm3) ± SEM on Day 26 ([3]; 0.4 mg/kg): 0 ± 0 mm3 | Average Tumor Size (mm3) ± SEM on Day 29 ([3]; 0.4 mg/kg): 0 ± 0 mm3 | Average Tumor Size (mm3) ± SEM on Day 34 ([3]; 0.4 mg/kg): 0 ± 0 mm3 | Average Tumor Size (mm3) ± SEM on Day 39 ([3]; 0.4 mg/kg): 0 ± 0 mm3 | Average Tumor Size (mm3) ± SEM on Day 42 ([3]; 0.4 mg/kg): 0 ± 0 mm3 | Average Tumor Size (mm3) ± SEM on Day 46 ([3]; 0.4 mg/kg): 0 ± 0 mm3 | Average Tumor Size (mm3) ± SEM on Day 55 ([3]; 0.4 mg/kg): 0 ± 0 mm3 | Average Tumor Size (mm3) ± SEM on Day 60 ([3]; 0.4 mg/kg): 0 ± 0 mm3 | Average Tumor Size (mm3) ± SEM on Day 4 ([3]; 4 mg/kg): 18.0 ± 1.2 mm3 | Average Tumor Size (mm3) ± SEM on Day 12 ([3]; 4 mg/kg): 0 ± 0 mm3 | Average Tumor Size (mm3) ± SEM on Day 15 ([3]; 4 mg/kg): 0 ± 0 mm3 | Average Tumor Size (mm3) ± SEM on Day 19 ([3]; 4 mg/kg): 0 ± 0 mm3 | Average Tumor Size (mm3) ± SEM on Day 22 ([3]; 4 mg/kg): 0 ± 0 mm3 | Average Tumor Size (mm3) ± SEM on Day 26 ([3]; 4 mg/kg): 0 ± 0 mm3 | Average Tumor Size (mm3) ± SEM on Day 29 ([3]; 4 mg/kg): 0 ± 0 mm3 | Average Tumor Size (mm3) ± SEM on Day 34 ([3]; 4 mg/kg): 0 ± 0 mm3 | Average Tumor Size (mm3) ± SEM on Day 39 ([3]; 4 mg/kg): 0 ± 0 mm3 | Average Tumor Size (mm3) ± SEM on Day 42 ([3]; 4 mg/kg): 0 ± 0 mm3 | Average Tumor Size (mm3) ± SEM on Day 46 ([3]; 4 mg/kg): 0 ± 0 mm3 | Average Tumor Size (mm3) ± SEM on Day 55 ([3]; 4 mg/kg): 0 ± 0 mm3 | Average Tumor Size (mm3) ± SEM on Day 60 ([3]; 4 mg/kg): 0 ± 0 mm3
